Measured values: patent US8648011B2, “Herbicidal compositions” (Syngenta Crop Protection LLC, priority 2009, dated 2014)

System: maize
Assay: Glass house test of safening effect on herbicide A, post-emergence application, phytotoxicity in maize
Format: in vivo
Details: for Phytotoxicity (%): post-emergence, maize, 24 DAA
Procedure: A glass house test was carried out to determine the safening effect of numerous safeners on a compound of Formula (I) with respect to maize. Various herbicidal compositions were applied post-emergence and the observed phytotoxicity in maize assessed 24 days after application (24DAA). A=2-chloro-5-[3,6-dihydro-3-methyl-2,6-dioxo-4-(trifluoromethyl)-1(2H)-pyrimidinyl]-4-fluoro-N-[[methyl(1-methylethyl)amino]sulfonyl]benzamide; B=1-[4-(N-2-methoxybenzoylsulfamoyl)phenyl]-3-methylurea.

[1] = safener 100 g/ha applied with herbicide A 100 g/ha
[2] = safener 250 g/ha applied with herbicide A 250 g/ha

| SMILES | Phytotoxicity (%) (herbicide A 100 g/ha, no safener) | Phytotoxicity (%) (herbicide A 250 g/ha, no safener) | safening of the 3-phenyluracil herbicide A in maize (in vivo) | Phytotoxicity (%) [1] | Phytotoxicity (%) [2] |
| --- | --- | --- | --- | --- | --- |
| CC(C)N(C)S(=O)(=O)NC(=O)c1cc(-n2c(=O)cc(C(F)(F)F)n(C)c2=O)c(F)cc1Cl [A, 2-chloro-5-[3,6-dihydro-3-methyl-2,6-dioxo-4-(trifluoromethyl)-1(2H)-pyrimidinyl]-4-fluoro-N-[[methyl(1-methylethyl)amino]sulfonyl]benzamide] | 25% | 35% |  |  |  |
| CNC(=O)Nc1ccc(S(=O)(=O)NC(=O)c2ccccc2OC)cc1 [B, 1-[4-(N-2-methoxybenzoylsulfamoyl)phenyl]-3-methylurea] |  |  | surprisingly good safening |  |  |
| O=C(O)COc1ccc(Cl)c2cccnc12 [Cloquintocet] |  |  |  | 25% | 35% |
| O=C(O)C1=NOC(c2ccccc2)(c2ccccc2)C1 [Isoxadifen] |  |  |  | 28% | 30% |
| CC1(C(=O)O)CC(C(=O)O)=NN1c1ccc(Cl)cc1Cl (stereo not drawn) [Mefenpyr] |  |  |  | 30% | 40% |
